From patent US4798896A, “Antipsychotic gamma-carboline N-oxides” (American Home Products Corporation, priority 1988, dated 1989)

Columns and labels:
[1] = target: T1, dopamine receptors (limbic D2) (Rattus norvegicus, UniProt P61169); test: limbic (accumbens) D2 binding, 3H-spiroperidol; conditions: limbic brain tissue
T1 construct: from tissue
Method: (§1) Following the procedures of Fields et al., Brain Res., 136, 578 (1977) and Yamamura et al., Neurotransmitter Receptor Binding, Raven Press, N.Y. (1978), homogenized limbic brain tissue is incubated with ^3 H-spiroperidol and various concentrations of test compound, filtered and washed and shaken with Hydrofluor scintillation cocktail (National Diagnostics) and counted in a Packard 460 CD scintillation counter. Binding in the presence of test compound is expressed as percent of specific binding [total binding less binding in the presence of 1 μM (+) butaclamol]. This limbic D2 binding procedure assesses a compounds potential binding at dopamine receptors as a predictor of antipsychotic activity.

[2] = target: T2, serotonin-2 receptors (5HT2) (Rattus norvegicus, UniProt P14842); test: serotonin-2 (5HT2) receptor binding in brain cortical tissue; conditions: for inhibition at 1 µM: read-out: % Inhibition of serotonin 5HT2 binding, at 1 μM
T2 construct: employing brain cortical tissue; from tissue; host or cells: brain cortical tissue
T2 sequence (P14842 whole entry): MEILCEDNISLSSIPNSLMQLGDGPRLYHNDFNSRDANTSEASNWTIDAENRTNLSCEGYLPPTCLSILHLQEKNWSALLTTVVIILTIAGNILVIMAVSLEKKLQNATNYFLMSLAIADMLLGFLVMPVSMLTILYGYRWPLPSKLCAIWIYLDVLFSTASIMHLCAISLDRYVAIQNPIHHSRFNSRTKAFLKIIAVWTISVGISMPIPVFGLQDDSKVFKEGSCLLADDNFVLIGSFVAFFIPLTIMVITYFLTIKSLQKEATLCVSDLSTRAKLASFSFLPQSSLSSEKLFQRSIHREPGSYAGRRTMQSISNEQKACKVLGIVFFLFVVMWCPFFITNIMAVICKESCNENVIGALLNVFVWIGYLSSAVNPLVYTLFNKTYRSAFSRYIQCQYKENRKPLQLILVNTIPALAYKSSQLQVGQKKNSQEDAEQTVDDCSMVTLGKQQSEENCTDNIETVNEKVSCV

[3] = test system: trained male CD rats (Charles River); test: conditioned avoidance, shelf-jump response test in trained rats; assay type: in vivo, rat
Excerpt: The antipsychotic/anxiolytic properties of the pyridine N-oxides of this invention were established by standard pharmacologically accepted procedures involving conditioned avoidance studies in which trained male CD rats (Charles River), 400-500 gm body weight, are exposed to a fifteen second warning tone (conditional stimulus) continued for an additional fifteen seconds accompanied by electric shock. The rates can avoid the electric shock by jumping to an exposed shelft (shelf-jump response). A response during the initial warning tone is considered to be an avoidance response while a response during shock delivery is considered an escape response. The avoidance response is determined and expressed as a percentage of total trials from an appropriate number of trials. The shelf-jump response test procedure follows that of Herman et al., Comm. in Psychopharm., 3, 165 (1979).

[4] = isolation of metabolites from rat urine after oral administration of the parent drug; assay type: in vivo; conditions: oral administration of parent drug at 100 mg/kg
Excerpt: (§2) By comparative analysis, the compounds of this invention were discovered to be one major form of several metabolites of the compounds disclosed in U.S. Pat. Nos. 4,636,563 and 4,672,117. This may be illustrated by consideration of the metabolic conversion of the compound of claim 13 of U.S. Pat. No. 4,636,563. Oral administration of the drug 8-fluoro-2,3,4,5-tetrahydro-2-[3-(3-pyridinyl)propyl]-1H-pyrido[4,3-b]indole to rats at a dose of 100 milligrams per kg followed by collectiion of urine and isolation of metabolites by column chromatography and selective solubilization in organic solvents yielded several metabolites. […] This metabolic pathway is consistent with the other anti-psychotic-anxilytic agents disclosed and claimed in U.S. Pat. Nos. 4,636,563 and 4,672,117.

[5] = overall appraisal from conditioned avoidance, serotonin binding inhibition and dopamine receptor binding inhibition procedures; conditions: tertiary nitrogen oxides of the parent compared
Method: as §1

[6] = detection of metabolite in monkey urine and plasma after administration of the parent drug; assay type: in vivo; conditions: intragastric 4 mg/kg or iv 1 mg/kg of parent drug
Excerpt: as §2

T1 sequence (P61169 whole entry): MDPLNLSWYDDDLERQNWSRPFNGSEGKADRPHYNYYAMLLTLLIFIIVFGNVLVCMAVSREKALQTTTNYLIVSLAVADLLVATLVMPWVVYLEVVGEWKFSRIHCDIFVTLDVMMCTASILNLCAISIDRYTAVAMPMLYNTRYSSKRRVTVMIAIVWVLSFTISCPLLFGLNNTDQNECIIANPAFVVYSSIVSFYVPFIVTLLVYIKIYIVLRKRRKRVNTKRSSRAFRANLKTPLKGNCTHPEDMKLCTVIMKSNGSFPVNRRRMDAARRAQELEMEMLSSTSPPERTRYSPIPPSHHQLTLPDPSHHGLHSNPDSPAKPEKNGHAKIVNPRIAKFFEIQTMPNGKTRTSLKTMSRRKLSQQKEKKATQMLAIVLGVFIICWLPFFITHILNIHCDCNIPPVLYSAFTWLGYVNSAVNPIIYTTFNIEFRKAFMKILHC

Row | inhibition at 1 µM [1] | inhibition at 1 µM [2] | SMILES | further results
1 | 0% | 18% | [O-][N+]1(CCCc2cccnc2)CCc2[nH]c3ccc(F)cc3c2C1 (stereo not drawn) [C, 8-Fluoro-2,3,4,5-tetrahydro-2-[3-(3-pyridinyl)propyl]-1H-piperidino[4,3-b]indole 2-oxide] | Inhibition of shelf-jump ([3]; result in words, dose not given): not significant
2 | 66% | 68% | [O-][n+]1cccc(CCCN2CCc3[nH]c4ccc(F)cc4c3C2)c1 [D, 8-Fluoro-2,3,4,5-tetrahydro-2-[3-(3-pyridinyl)propyl]-1H-piperidino[4,3-b]indole N-oxide] | metabolite of the parent drug in urine [4]: one of the major metabolites; antipsychotic/anxiolytic activity [5]: meaningful antipsychotic/anxiolytic activity; Inhibition of shelf-jump ([3]; 40 mg/kg): 16%; detection as metabolite in urine and plasma [6]: detected in monkey urine and plasma

Second part, the compound before the results:

Row | SMILES | inhibition at 1 µM [1] | inhibition at 1 µM [2] | further results
3 | [O-][n+]1cccc(CCC[N+]2([O-])CCc3[nH]c4ccc(F)cc4c3C2)c1 (stereo not drawn) [B, 8-Fluoro-2,3,4,5-tetrahydro-2-[3-(3-pyridinyl)propyl]-1H-piperidino[4,3-b]indole N,2-dioxide] | 4% | 18% | 
4 | Fc1ccc2[nH]c3c(c2c1)CN(CCCc1cccnc1)CC3 [A, 8-fluoro-2,3,4,5-tetrahydro-2-[3-(3-pyridinyl)propyl]-1H-piperidino(4,3-b]indole, reference compound] | 93% | 78% | Inhibition of shelf-jump ([3]; 20 mg/kg): 73%
5 | NCCc1ccc(O)c(O)c1 [dopamine, reference compound] |  |  | activity at serotonin-2 receptor [2]: inactive
